Experimental data: US20040038424A1, “Formaldehyde-ammonium salt complexes for the stabilization of blood cells” (priority 2002, published 2004)

Key:
[1] = test system: platelet granule marker CD62p on platelets; assay: Percentage of CD62p positive platelets by flow cytometry (platelet activation state); type: cell-based, human; details: dibasic versus tribasic ammonium citrate in the reagent, FIGS. 11A and 11B
Text: When used to stabilize blood samples or fractions or other tissues containing platelets, the composition and methods of this invention preserve platelet activity in the state of activation substantially the same as that existing at the time of blood or platelet withdrawal from the blood or platelet donor. By “state of activation of the platelets” or “Activation Potential” as used herein is meant the percentage of platelets expressing the CD62p antigen, i.e., the percentage of platelets that bind CD62p fluorescently-labeled antibody as performed by flow cytometry, or CD62p positive platelets in the sample. The CD62p antigen represents a glycoprotein antigen that is unique to megakaryocyte, platelet, and endothelial cell secretory granules. […]
Expression of CD62p is measured typically by flow cytometric analysis using dual or multi-parameter analyses, and particularly by staining the samples with labeled ligands that bind to CD62p on the platelets in the sample. The ligands are conventionally monoclonal antibodies to the antigen to be measured. […]
The same protocol was conducted on activated blood samples. […] PAP was assessed using 2 μl of a 1/100 dilution (0.0324 mM) of stock PMA is added with 10 μl antibodies and 100 μl of diluent (PBS) and 2.5 μl of blood and incubated for 15 minutes (final concentration of 11.58 μM). […]

cells = assay: Cellular stabilization (several experiments); type: cell-based

Row | Compound | stabilization of CD62p by ammonium salt type [1] | effectiveness in cellular stabilization (cells)
1 | N.N.O=C(O)CC(O)(CC(=O)O)C(=O)O [dibasic ammonium citrate] | better stabilization | 
2 | C1N2CN3CN1CN(C2)C3 [hexamethylenetetramine] |  | not effective
